Test results as given in patent US20260085280A1, “ADAPTATION AND PROCESS OPTIMIZATION OF MICROORGANISMS FOR GROWTH IN HEMICELLULOSIC DERIVED CARBOHYDRATES” (MARA RENEWABLES CORPORATION, priority 2018, published 2026).

Key:
[1] = system: Gxs1 7-7; test: xylose depletion flask assay, medium spiked with increasing concentrations of xylitol; type: cell-based, Thraustochytrium species (ONC-T18); conditions: 20 g/L xylose and 8 g/L glucose; for Biomass / Xylose used / Xylose used (%): after 144 hours
Experimental: The impact of xylitol concentration on glucose and xylose consumption was determined using 7-7, Gxs1 7-7, and 51-7 strains. […] In xylose depletion flask assays, Gxs1 7-7 was used with medium containing 20 g/L xylose and 8 g/L glucose and spiked with increasing concentrations of xylitol as shown in Table 4. The values in Table 4 are the total amount of biomass produced and xylose used after 144 hours. The glucose used amounts are shown at 48 hours.

[2] = system: 7-7, Gxs1 7-7, and 51-7 strains; test: impact of xylitol concentration on glucose and xylose consumption; type: cell-based, Thraustochytrium species (ONC-T18); conditions: FIGS. 2A-2D and Table 4
Experimental: The impact of xylitol concentration on glucose and xylose consumption was determined using 7-7, Gxs1 7-7, and 51-7 strains.

## OC[C@@H](O)[C@H](O)[C@@H](O)CO [Xylitol, xylitol]
[1]; 1 g L^−1 xylitol
  Glucose used (%) @48 hr: 99.9%
  Glucose used (g) @48 hr: 9.04 g
  Biomass: 7.225 g/L
  Xylose used: 11.03 g
  Xylose used (%): 56.2%
[1]; 5 g L^−1 xylitol
  Glucose used (%) @48 hr: 43.7%
  Glucose used (g) @48 hr: 3.99 g
  Biomass: 6.683 g/L
  Xylose used: 5.06 g
  Xylose used (%): 25.5%
[1]; 10 g L^−1 xylitol
  Glucose used (%) @48 hr: 18.6%
  Glucose used (g) @48 hr: 1.66 g
  Biomass: 6.425 g/L
  Xylose used: 4.24 g
  Xylose used (%): 22.0%
[1]; 15 g L^−1 xylitol
  Glucose used (%) @48 hr: 12.8%
  Glucose used (g) @48 hr: 1.13 g
  Biomass: 6.592 g/L
  Xylose used: 3.67 g
  Xylose used (%): 19.3%
[2]
  xylitol concentration to be kept in order to avoid growth inhibition: lower than 1 g/L
